Test results published in PMC6226181 (PLoS ONE, 2018).
Non-standard residues stand in square brackets, D forms with d. Residues, ends and D or L forms follow the SMILES beside them. *: point of attachment. AFC = O=c1cc(C(F)(F)F)c2ccc(N*)cc2o1; AMC = Cc1cc(=O)oc2cc(N*)ccc12

How the values were obtained:
anthrax lethal factor [1] = molecular target: T1, anthrax lethal factor (Bacillus anthracis, UniProt P15917); assay type: biochemical; conditions: 5 hours at 37°C
anthrax lethal factor [2] = molecular target: T1, anthrax lethal factor; assay type: biochemical; conditions: 5 hours at 37°C; remark: listed apart in the source
anthrax lethal factor [3] = molecular target: T1, anthrax lethal factor; conditions: cited from earlier work

T1 sequence (P15917 34-809 limits assumed): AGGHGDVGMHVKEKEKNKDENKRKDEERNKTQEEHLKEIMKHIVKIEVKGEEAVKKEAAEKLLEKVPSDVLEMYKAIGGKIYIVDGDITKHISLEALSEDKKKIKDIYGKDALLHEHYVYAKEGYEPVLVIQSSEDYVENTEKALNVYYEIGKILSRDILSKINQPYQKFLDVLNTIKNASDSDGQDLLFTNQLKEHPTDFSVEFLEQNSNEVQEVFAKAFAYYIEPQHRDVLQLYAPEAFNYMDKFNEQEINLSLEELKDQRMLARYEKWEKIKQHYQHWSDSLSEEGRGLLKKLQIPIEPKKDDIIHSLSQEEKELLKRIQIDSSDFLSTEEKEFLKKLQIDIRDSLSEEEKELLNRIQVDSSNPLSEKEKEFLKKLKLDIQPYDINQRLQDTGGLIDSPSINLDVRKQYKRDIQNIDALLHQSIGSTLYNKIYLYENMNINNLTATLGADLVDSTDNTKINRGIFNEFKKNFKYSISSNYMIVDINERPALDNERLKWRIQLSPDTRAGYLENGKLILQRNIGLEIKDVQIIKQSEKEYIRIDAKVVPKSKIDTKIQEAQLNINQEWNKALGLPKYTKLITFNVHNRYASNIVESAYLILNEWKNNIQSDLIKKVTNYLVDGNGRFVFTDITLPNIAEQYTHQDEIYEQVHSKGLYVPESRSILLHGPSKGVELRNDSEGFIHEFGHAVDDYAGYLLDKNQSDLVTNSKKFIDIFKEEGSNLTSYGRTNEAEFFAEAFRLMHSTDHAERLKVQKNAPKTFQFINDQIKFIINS

With `CC(=O)N[C@H](CCCNC(=N)N)C(=O)N[C@H](CCCNC(=N)N)C(=O)N[C@H](CCCCN)C(=O)N[C@H](CCCCN)C(=O)N[C@H](C(=O)N[C@@H](Cc1ccc(O)cc1)C(=O)N1CCC[C@H]1C(=O)Nc1ccc2c(C)cc(=O)oc2c1)C(C)C` [LBL 10097] (Ac-[dR][dR][dK][dK]VYP-{AMC}) the “Cleavage by LF in 1:10 diluted bovine plasma (increase in fluorescence)” value (anthrax lethal factor [1]) was “dependent upon the presence and amount of LF”.
With `CC(=O)N[C@@H](CCCNC(=N)N)C(=O)N[C@@H](CCCNC(=N)N)C(=O)N[C@@H](CCCCN)C(=O)N[C@@H](CCCCN)C(=O)N[C@H](C(=O)N[C@@H](Cc1ccc(O)cc1)C(=O)N1CCC[C@H]1C(=O)Nc1ccc2c(C)cc(=O)oc2c1)C(C)C` [LBL 10079] (Ac-RRKKVYP-{AMC}) the “Cleavage by LF in 1:10 diluted bovine plasma (increase in fluorescence)” value (anthrax lethal factor [1]) was “does not correlate with the amount of LF”.
In the case of `CC(=O)N[C@H](CCCCN)C(=O)N[C@H](CCCCN)C(=O)N[C@H](C(=O)N[C@@H](Cc1ccc(O)cc1)C(=O)N1CCC[C@H]1C(=O)Nc1ccc2c(C)cc(=O)oc2c1)C(C)C` [LBL 10100] (Ac-[dK][dK]VYP-{AMC}), the “Cleavage by LF in assay buffer (increase in fluorescence)” value (anthrax lethal factor [2]) is reported as “eliminates hydrolysis at the concentrations of LF used”.
In the case of “7-methoxy-coumarin-4-acetyl (Mca)-Arg-Arg-Lys-Lys-Val-Tyr-Pro-Try-Pro-Met-Glu -2,4-dinitrophenol (DNP) -Thr-Ile-Ala”, the “Cleavage by LF” value (anthrax lethal factor [3]) is listed as “cleaved by LF after the first proline”.
In the case of `CC(=O)N[C@@H](CCCNC(=N)N)C(=O)N[C@H](CCCNC(=N)N)C(=O)N[C@H](CCCCN)C(=O)N[C@H](CCCCN)C(=O)N[C@H](C(=O)N[C@@H](Cc1ccc(O)cc1)C(=O)N1CCC[C@H]1C(=O)Nc1ccc2c(C(F)(F)F)cc(=O)oc2c1)C(C)C` [LBL 10108] (Ac-R[dR][dK][dK]VYP-{AFC}), the “Non-specific cleavage in plasma in the absence of LF” value (plasma proteases) is reported as “neither peptide is cleaved in plasma in the absence of LF”.
